Assay results as given in paper PMC5472749, “A covalent PIN1 inhibitor selectively targets cancer cells by a dual mechanism of action” (Nature Communications, 2017).

Molecular target: T1, PIN1 (Homo sapiens, UniProt Q13526)
T1 construct: recombinant human PIN1
Test: trypsin-coupled PPIase assay (kinact/Ki; IC50 […]); LC/MS and MALDI MS/MS show a +[…] Da adduct on C113, absent in C113A
Assay type: biochemical
Conditions: read-out: Ki

T1 sequence (Q13526 whole entry): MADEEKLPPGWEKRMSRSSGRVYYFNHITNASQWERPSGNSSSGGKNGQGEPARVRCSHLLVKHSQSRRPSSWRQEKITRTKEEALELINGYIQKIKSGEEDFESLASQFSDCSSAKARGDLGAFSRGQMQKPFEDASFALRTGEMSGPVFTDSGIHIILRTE

**Q.** For `CC(C)(C)c1ccc(S(=O)(=O)/N=C2/C=C(SCC(=O)O)C(=O)c3ccccc32)cc1` [compound 1], which KI (inactivation) is on record?
**A.** 625 ± 325 nM
